Experimental data as given in US20110046225A1, “Pharmaceutical formulation containing palmitoyl ethanolamide and stearoyl ethanolamide” (VERMONT ITALIA SRL, priority 2008, published 2011).

Columns and labels:
RBL-2H3 cells = experiment: inhibition of β-hexosaminidase release in IgE/DNP-stimulated RBL-2H3 mastocyte cells; format: cell-based; details: stimulated RBL-2H3 cells, culture medium; for INHIBITION OF β-HEXOSAMINIDASE RELEASE (% on test): 10 μM
From the text: More specifically, a RBL-2H3 mastocyte cell line was used to express high-affinity receptors for the IgE immunoglobulins. The interaction of the antigens with the IgE molecules present on the cell surface stimulates secretion by said cells of the pro-inflammatory contents of their intracytoplasmic granules, amongst which significant quantities of: histamine, leukotrienes, prostaglandins and TNF-alfa. The RBL-2H3 therefore represent an excellent cell module for the study of the mechanisms of exocytosis and release of the inflammatory mediators and of the relative modulation, as the case may be. In particular, measurement of the activity by the β-hexosaminidase enzyme was performed, the release of which correlates positively with the secretion of very strong pro-inflammatory mediators such as histamine and TNF-alfa. As already specified, a RBL-2H3 mastocyte cell line was used to express high-affinity receptors for the IgE immunoglobulins, whilst the assessment of cell vitality was recorded by way of the MTT method. The RBL-2H3 cell culture was started with a density amounting to 20,000 cells/well (96 wells) and incubated with IgE-anti-DNP. After about one hour, the antigen (DNP) was introduced into the culture, then after another 30 minutes the culture medium was harvested. Measurement of the activity by the β-hexosaminidase enzyme was performed on the harvested […], the release of which correlated positively with the secretion of very strong pro-inflammatory mediators such as histamine and TNF-alfa. A reduction of the enzymatic activities in the culture medium signifies minor cell degranulation and thus […]. The molecules according to the patent application herein were solubilised in DMSO and both added in variable concentrations to the cell cultures 1 hour prior to the introduction of the antigen.

receptor GPR55 = receptor GPR55 (Homo sapiens, UniProt Q9Y2T6); details: Ryberg et al. 2007; cited from earlier work
[1] = U.S. Pat. No. 5,990,170; 5,679,667; 5,506,224; cited from earlier work
[2] = cited from earlier work

Sequence of receptor GPR55 (Q9Y2T6 whole entry): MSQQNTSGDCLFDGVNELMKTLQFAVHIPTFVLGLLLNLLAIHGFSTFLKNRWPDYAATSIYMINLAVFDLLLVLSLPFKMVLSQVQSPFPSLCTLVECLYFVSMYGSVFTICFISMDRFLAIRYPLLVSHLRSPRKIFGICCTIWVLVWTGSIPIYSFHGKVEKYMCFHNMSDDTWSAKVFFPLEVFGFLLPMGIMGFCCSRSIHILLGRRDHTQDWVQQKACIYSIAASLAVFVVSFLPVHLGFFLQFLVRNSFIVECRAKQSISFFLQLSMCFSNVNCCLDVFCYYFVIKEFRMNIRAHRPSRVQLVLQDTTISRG

Row | SMILES | inhibition at 10 µM (RBL-2H3 cells; Rattus norvegicus, read-out: INHIBITION OF β-HEXOSAMINIDASE RELEASE (% on test)) [%] | affinity for GPR55 (receptor GPR55) | anti-inflammatory activity relative to PEA [1] | solubility in aqueous environments [2] | INHIBITION OF β-HEXOSAMINIDASE RELEASE (% on test) (RBL-2H3 cells) [%]
1 | CCCCCCCCCCCCCCCC(=O)NCCO [Palmitoyl ethanolamide (PEA), palmitoyl ethanolamide] | 23.6 | nano-mole affinity array | – | – | –
2 | CCCCCCCCCCCCCCCCCC(=O)NCCO [Stearoyl ethanolamide (SEA), Stearoyl ethanolamide] | – | – | much less active than the lower homologue PEA | extremely scarce | 25.3
3 | C[C@@H]1C[C@H]2[C@@H]3CCC4=CC(=O)C=C[C@]4(C)[C@@]3(F)[C@@H](O)C[C@]2(C)[C@@]1(O)C(=O)CO [Desametazone, reference compound] | – | – | – | – | 40.2
4 | CCCCCc1cc(O)c2c(c1)OC(C)(C)[C@@H]1CCC(C)=C[C@@H]21 [THC, delta-9-tetrahydrocannabinol, reference compound] | – | nano-mole affinity array | – | – | –
